Key:
[1] = test system: human T cells; assay: activation of healthy-donor human T cells (anti-CD3), marker expression by flow cytometry; type: cell-based; details: 24 h post activation, 3 uM, vs scrambled peptide; FIG. 17d
Experimental: Mean value from ‘Activated’ group shown with dotted line (---) for comparison. Responses from same healthy donors are shown with same color dots. Error bars are computed as the standard error of the mean (SEM) from 6 healthy donor samples.
This study adopted an ex-vivo system using human T cells isolated from healthy donors to screen for novel VIP-R antagonist peptides. Human T cells were cultured over 6 or 24 hours with activation in the presence or absence of peptides and were assessed for percent CD69 surface expression by flow cytometry to measure the state of T cell activation. The activity of the peptides was determined by percent increase in CD69 expression relative to no peptide control. […] We also observed that amongst the donors, most were classified as average responders, with measured value for CD69 expression within the error bars while two others had measured values outside the error bars, one sample reflecting a super-responder (purple dots) and one sample reflecting a slow-responder (green dots) (FIGS. 10A and 10B). […]
Human T cell activation and expansion. […] Cells were counted using Trypan blue dye and phenotyped via flow cytometry on day 9. […]

[2] = test system: MT5, KPC-Luc, Panc02, BXPC3, Capan-02 PDAC cell lines; assay: cell viability assay (MTT) of PDAC cell lines; type: cell-based, mouse and human; details: 0-5 uM, 72 hours; FIG. 13E, 24a
Experimental: (FIG. 24A) Percentage viability of murine (MT5, KPC.Luc, Panc02) and human (Capan02, BxPC3) PDAC cell lines cultured in the presence of different concentrations ranging from 0-5 μM of ANT008 for 72 hours is plotted. Confirmation of CRISPR-Cas9 KO of VIPR2 encoding VPAC2 receptor via (FIG. 24B) western blot; (FIG. 24C) RT-PCR using primers targeting exon 9-12 downstream of targeted site and (FIG. 24D) Sanger Sequencing showing the validation of in-del mutation in exon 2. In vitro MTT assay showing (FIG. 24E) Proliferation of WT and KO cells over 72 hours; (FIG. 24F) Percent viability of wild type (WT) and VPAC2 KO (KO) Panc02 cells treated with ANT008 and ANT308 at 3 μM for 72 hours. (FIG. 24G) Tumor growth curve of WT versus KO Panc02 cells in C57BL/6 mice following subcutaneous tumor implantation. Values represent median tumor volume±95% confidence interval. (FIG. 24H) Kaplan-Meier survival plots corresponding to results in FIG. 24G. Median survival time for WT is 21 days and 28 days for VPAC2 KO. Error bars represent mean and standard deviation. *p<0.05, **p<0.01.
Cell viability assay. […] Cell viability was assessed using cell proliferation kit I from Roche (Basel, Switzerland), following the manufacturer's instructions. […] This was followed by incubation with solubilization buffer overnight and reading the absorbance at 570 nm. […]

Row | Sequence | CD69 expression in CD4 and CD8 human T cells [1] | viability and growth of PDAC cell lines in vitro [2]
1 | KPRRPYTSDYTRLRKQMAVKKYLNLILN [ANT308] | significantly increased | 
2 | KPRRPYTDNYTRLRKQMAVKKYLNLILN [ANT008] |  | did not affect viability of PDAC cell lines in vitro, except a transient effect in MT5
